Measurements from ChEMBL document CHEMBL1201862, “PubChem BioAssay data set” (2004).
Active and inactive are the calls of the source.

Columns and labels:
[1] = cytotoxicity in HeLa cells, dose response, cytotoxicity control, cell-based, plate reader, dry powder (AID 651946); assay type: functional
[2] = target: Major prion protein (Homo sapiens, UniProt P04156); assay type: functional, cell-based
[3] = cells
[4] = cells; settings: HEK293
[5] = cells; remark: listed apart in the source
[6] = target: ATP-dependent translocase ABCB1 (Homo sapiens, UniProt P08183); test: ABCB1 efflux inhibition concentration-response, dose response, Jurkat-DNR cells, JC-1, flow cytometry, follow-up (AID 489002); assay type: functional
[7] = test system: A549; test: A549 cell toxicity, dose response, cytotoxicity control, plate reader, cherry-pick samples (AID 687028); assay type: functional, cell-based; settings: Homo sapiens
[8] = target: Fructose-bisphosphate aldolase (Mycobacterium tuberculosis, UniProt P9WQA3); test: Fluorescence-based biochemical high throughput dose response assay for inhibitors of the fructose-bisphosphate aldolase (FBA) of M. tuberculosis.; assay type: functional
[9] = test system: HEK293; test: cells; settings: Homo sapiens
[10] = Late stage assay provider results from the probe development effort to identify selective inhibitors of heat shock protein 90 (HSP90): Absorbance-based cell proliferation assay in MCF7 cells.; assay type: functional
[11] = test system: HEK293; test: cells; settings: Homo sapiens; remark: listed apart in the source
[12] = Late stage assay provider results from the probe development effort to identify selective inhibitors of heat shock protein 90 (HSP90): Absorbance-based cell proliferation assay in SKBR3 cells.; assay type: functional; settings: SK-BR-3
[13] = target: Hexokinase-1 (Homo sapiens, UniProt P19367); test: hexokinase 1 activators, dose response, selectivity assay for HKDC1 activator project, biochemical (AID 504762); assay type: functional
[14] = target: Nonstructural protein 1 (Influenza A virus, UniProt Q194T2); assay type: functional, Influenza A virus (A/California/07/2009(H1N1))
[15] = target: Heat shock protein HSP 90-alpha (Homo sapiens, UniProt P07900); assay type: functional, organism-based
[16] = test system: Streptococcus sp. 'group A'; test: growth inhibition of control SK(-) GAS strain, dose response, counter-screen for streptokinase expression inhibitor project, luminescence, kanamycin, BacTiterGlo, confirmation (AID 1900); assay type: functional, organism-based
[17] = test system: Streptococcus; test: Group A Streptococcus viability loss, dose response, counter-screen for streptokinase expression inhibitor project, luminescence, BacTiterGlo (AID 1915); assay type: functional, organism-based;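 note: potency for reduction of bacterial viability or growth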
[18] = test system: BJ; test: cells; assay type: functional, cell-based; settings: Homo sapiens
[19] = test system: Vero; test: host cell cytotoxicity of antiviral hits, dose response, cytotoxicity control for West Nile virus antiviral project, secondary assay (AID 1650); assay type: functional; settings: Chlorocebus sabaeus
[20] = cytotoxicity toward DRD oncogenic fibroblasts, dose response, cell-based, non-viral oncogenic, luminescence (AID 1934); assay type: functional; settings: Homo sapiens
[21] = HepG2 cell cytotoxicity, dose response, cytotoxicity control, ATP luminescence, cherry-pick, activator set 2 (AID 1053143); assay type: functional, cell-based
[22] = insulin promoter down-regulators in MIN6 cells, imaging, high-content screening, mouse beta cells (AID 1628); assay type: functional
[23] = test system: BJ; test: cytotoxicity toward Ras-transformed BJeLR fibroblasts, dose response, cell-based, alamar blue fluorescence, cherrypicked samples (AID 2631); assay type: functional; settings: Homo sapiens;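 note: confirmatory dose-response assay in RAS-dependent BJ fibroblasts engineered with TERT, LT and ST, with cytotoxicity read by fluorescence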
[24] = cytotoxicity in MIN6 insulinoma cells, dose response, cytotoxicity control, cell-based, mouse insulinoma (AID 2122); assay type: functional;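 note: confirmatory high-throughput counterscreen run to flag cytotoxic compounds; mouse MIN-6 beta cells carrying an insulin promoter eGFP reporter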
[25] = target: T1, Hexokinase HKDC1 (Homo sapiens, UniProt Q2TB90); test: HKDC1 hexokinase activators, dose response, biochemical, W721R variant (AID 504730); assay type: functional
T1 sequence (Q2TB90 whole entry): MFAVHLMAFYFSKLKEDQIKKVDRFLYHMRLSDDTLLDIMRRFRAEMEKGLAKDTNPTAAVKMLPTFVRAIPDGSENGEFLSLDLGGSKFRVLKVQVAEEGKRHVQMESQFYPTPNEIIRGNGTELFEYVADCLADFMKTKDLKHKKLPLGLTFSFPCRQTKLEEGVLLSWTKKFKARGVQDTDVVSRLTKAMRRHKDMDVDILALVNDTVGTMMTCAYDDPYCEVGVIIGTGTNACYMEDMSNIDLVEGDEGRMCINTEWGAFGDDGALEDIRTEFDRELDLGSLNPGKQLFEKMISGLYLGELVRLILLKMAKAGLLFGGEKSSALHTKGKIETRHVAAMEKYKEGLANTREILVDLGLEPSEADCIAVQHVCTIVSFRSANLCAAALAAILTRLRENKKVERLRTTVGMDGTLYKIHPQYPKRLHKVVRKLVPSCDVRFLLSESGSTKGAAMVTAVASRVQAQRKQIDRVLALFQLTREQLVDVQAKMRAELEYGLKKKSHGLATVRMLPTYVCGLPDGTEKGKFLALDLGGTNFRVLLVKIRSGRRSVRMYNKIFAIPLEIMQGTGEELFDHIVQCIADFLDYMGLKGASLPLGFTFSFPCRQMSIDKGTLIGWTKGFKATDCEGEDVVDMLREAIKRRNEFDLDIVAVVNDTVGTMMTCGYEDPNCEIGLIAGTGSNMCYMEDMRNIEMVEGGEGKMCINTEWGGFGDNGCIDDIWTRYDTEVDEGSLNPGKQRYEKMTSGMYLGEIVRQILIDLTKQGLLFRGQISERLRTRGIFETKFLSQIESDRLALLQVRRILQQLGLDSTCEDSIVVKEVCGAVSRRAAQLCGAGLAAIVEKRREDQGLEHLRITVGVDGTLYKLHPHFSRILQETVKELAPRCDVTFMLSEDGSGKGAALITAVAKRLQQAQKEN

[26] = test system: BJ; test: cytotoxicity toward BJ-TERT fibroblasts, dose response, cell-based, RAS-independent, luminescence (AID 1933); assay type: functional; settings: Homo sapiens
[27] = test system: BJ; test: cytotoxicity toward BJ-TERT-LT-ST fibroblasts, dose response, cell-based, RAS-independent, luminescence (AID 1935); assay type: functional; settings: Homo sapiens;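 note: BJ fibroblasts immortalized with TERT plus LT and ST oncogenes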
[28] = test system: INS1; test: beta cell apoptosis inhibitors, cytokine rescue, dose response, luminescence, retest (AID 449756); assay type: functional, cell-based; settings: Rattus norvegicus;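 note: cell death triggered by IL-1 beta plus TNF-alpha plus IFN-gamma mixture; protective hits raise ATP signal compared with cytokine alone wells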
[29] = Late stage assay provider results from the probe development effort to identify inhibitors of the Plasmodium falciparum M17 Leucine Aminopeptidase (M17LAP): radiolabel-based cell-based dose response assay to identify compounds that inhibit P. falciparum growth in RBCs Set 2.; assay type: functional
[30] = target: 1-phosphatidylinositol 4,5-bisphosphate phosphodiesterase beta-3 (Homo sapiens, UniProt Q01970); test: Fluorescence-based biochemical high throughput dose response assay to identify inhibitors of phospholipase C isozymes (PLC-B3).
[31] = target: 1-phosphatidylinositol 4,5-bisphosphate phosphodiesterase gamma-1 (Homo sapiens, UniProt P19174); test: Counterscreen for inhibitors of phospholipase C isozymes (PLC-B3): Fluorescence-based biochemical high throughput dose response assay to identify inhibitors of phospholipase C isozymes (PLC-gamma1).

## FC(F)(F)Oc1ccccc1CSc1nnc(-c2ccccc2)o1
[1]
  AC50: > 52 µM (inactive)

## Cc1ccc(S(=O)(=O)N2CCCCC2)cc1NC(=O)CSc1ncnc2ccccc12
[2]
  IC50: 5.6 µM (active)
[3]
  IC50: > 138 µM (inactive)

## Cc1ccc2[nH]c3ccccc3c(=O)c2c1
[4]
  AC50: 38.6 µM (active)
[5]
  AC50: 7.34 µM (active)

## O=C(Nc1ccccc1)C1CCN(c2cc(-c3ccco3)nc3cc(-c4ccccc4)nn23)CC1
[6]
  EC50: 0.1399 µM

## CCN(c1ccccc1)S(=O)(=O)c1ccc(OC)c(NC(=O)C2CCC2)c1
[7]
  AC50: 35.7 µM (active)

## COC(=O)C1=CN(Cc2ccc(F)cc2)C=C(C(=O)OC)C1c1cc(OC)c(OC)c(OC)c1
[8]
  IC50: 1.65 µM (active)

## O=C(NCCc1ccc(F)cc1)c1coc(=O)c(Br)c1
[9]
  EC50: > 59.7 µM (inactive)
[10]
  IC50: 2.1 µM (active)
[11]
  EC50: > 59.7 µM (inactive)
[12]
  IC50: 5.3 µM (active)

## CC(C)(C)c1nnc(N/N=C/c2cc(Br)ccc2O)n(N)c1=O
[13]
  EC50: > 80 µM (inactive)
[14]
  IC50: 16.6 µM (active)
[15]
  AC50: 5.57 µM (active)
[16]
  EC50: 2.91 µM (active)
[17]
  EC50: 3.18 µM (active)
[18]
  EC50: 3.69 µM (inconclusive)
[19]
  CC50: 5 µM (active)
[20]
  EC50: 1.01 µM (active)
[21]
  AC50: 5.77 µM (active)
[22]
  IC50: 1.81 µM (active)
[23]
  EC50: 1.24 µM (active)
[24]
  IC50: 2.08 µM (active)
[25]
  EC50: 19.9 µM (active)
[26]
  EC50: 681 nM (active)
[27]
  EC50: 706 nM (inconclusive)
[28]
  AC50: 859 nM (active)

## O=C(NO)c1ccc2ccccc2c1
[29]
  IC50: 15.7 µM (inactive)

## CC/C(NCC1CCCO1)=C1/C(=O)NC(=O)N(Cc2ccccc2)C1=O (stereo unspecified)
[30]
  IC50: > 122 µM (inactive)
[31]
  IC50: > 122 µM (inactive)
